Tests used:
[1] = physchem
[2] = Log P (oil solubility) of grease complexing agents; details: more oil soluble than azelaic acid

Row | Structure (SMILES) | logP [1] | oil solubility relative to azelaic acid [2]
1 | O=C(O)CCCCCCCC(=O)O [Azelaic (C9), azelaic acid, reference compound] | 2.01 | –
2 | O=C(O)CCCCCCCCCCCCCCCCC(=O)O [ERS ODDA (C18), octadecanedioic acid] | 3 | about 1.5 times
